Values after ≈ are worked out from the molar mass of the structure shown. Like-named read-outs stand apart in the source and are kept apart here.
Experiment: Solubility analysis in biological solvents (SGF, FaSSIF, FeSSIF) and water, with pH and XRPD of residual solid
Format: physicochemical
Procedure: HPLC analysis was performed by using an Agilent HPLC 1260 series instrument and the HPLC methods used for solubility and stability determinations were shown in Tables 33 and 34, respectively.

Structure (SMILES): Cc1c(C#Cc2cnc3ccc(N4CCC(O)CC4)nn23)cccc1C(=O)Nc1cc(Cl)cc(C(F)(F)F)c1 [Compound A, N-(3-chloro-5-(trifluoromethyl)phenyl)-3-((6-(4-hydroxypiperidin-1-yl)imidazo [1,2-b]pyridazin-3-yl)ethynyl)-2-methylbenzamide]
- Solubility (FeSSIF, 37 °C, pH 5, fessif, thermodynamic from solid, FeSSIF, read-out: solubility): 200 to 1900 µg/mL (≈ 361 to 3430 µM)
- Solubility (SGF and water): < LOD

Reference: patent publication US20260226060A1, “SALTS AND CRYSTALLINE FORMS OF COMPOUND A, METHODS OF PREPARATION, AND USES THEREOF” (SHENZHEN NEWDEL BIOTECH CO., LTD., priority 2023, published 2026)
